Measured values as given in patent US20160249841A1, “[…] ELECTROENCEPHALOGRAPHIC OSCILLATIONS” (Galenea Corp., priority 2012, published 2016).

Legend:
[1] = system: wild-type mice; experiment: EEG time-frequency maps of mean power during onset of exploratory activity, wild-type mice treated with PCP; format: in vivo, mouse; settings: wild-type mice treated with PCP versus untreated, FIG. 10
Description: Time-frequency maps were produced of mean power for untreated wild-type mice and mice treated with PCP. A signature in EEG oscillations observed in untreated mice was absent following treatment with PCP. This signature was characterized by peaks in early beta (20-30 Hz) activity, gammaLow (30-40 Hz) and gammaHi (80-100) Hz activity.

[2] = system: CNhetKO mice; experiment: Novel object recognition task performance, CNhetKO mice; format: in vivo, mouse
Procedure: EEGs were recorded from control and calcineurin heterozygous knock-out (CNhetKO) subjects during performance of a novel-object recognition task. Control and CNhetKO mice were exposed to two identical objects during a 10 min sample phase. After a 24 hour delay period, subjects were exposed to a familiar object and a novel object. During each phase, the behavior of each subject was monitored in real time and synchronized to recorded EEG oscillations (Topscan, CleverSys Inc.). As depicted in FIG. 4, an exploratory activity occurred when a subject's nose was orientated towards an object and was within a 2 cm radius surrounding the object for at least 200 msec, while the subject's center of mass (‘*’) was outside of 2 cm radius. […]
The effects of D4 agonist PD168077 on the EEG oscillations observed during onset of the exploratory activity in CNhetKO mice were evaluated. CNhetKO subjects were treated with PD 168077 (5 mg/kg) subcutaneously and EEG oscillations associated with exploratory activity in a novel object recognition task were analyzed. Exploratory activity in the presence of novel objects and familiar objects was analyzed for up to 90 min post-injection. Time-frequency maps of baseline conditions (no D4 agonist) and treatment conditions were evaluated.

[3] = system: CNhetKO mice; experiment: EEG oscillations in PFC during onset of exploratory activity in novel object recognition task, CNhetKO mice; format: in vivo, mouse; settings: 5 mg/kg subcutaneously
Description: Alterations in electroencephalographic oscillations (e.g., shifts in power) recorded from the prefrontal cortex (PFC) of mice could result from engagement of executive functions necessary for attending to and actively exploring a new environment; processes unrelated to executive function may also be involved. An integrated system was set up that combined automated real-time behavioral analysis (Topscan, CleverSys, Inc., Reston, Va.) together with multichannel electrophysiology equipment (MC_Rack, MultiChannel Systems, GmbH, Reutlingen, Germany) to analyze PFC activity during different phases of a novel object recognition (NOR) task in mice that were well habituated to the test apparatus.
EEGs were recorded from control and calcineurin heterozygous knock-out (CNhetKO) subjects during performance of a novel-object recognition task. […] During each phase, the behavior of each subject was monitored in real time and synchronized to recorded EEG oscillations (Topscan, CleverSys Inc.). […]
The area under the curve was computed from spectrograms to quantify power in different frequency bands [Theta (4-12 Hz) and GammaHI (65-90 Hz)] of the EEG oscillations. […]
The effects of D4 agonist PD168077 on the EEG oscillations observed during onset of the exploratory activity in CNhetKO mice were evaluated. […] Time-frequency maps of baseline conditions (no D4 agonist) and treatment conditions were evaluated.

[4] = system: Coloboma mice; settings: low doses; cited from earlier work

## c1ccc(C2(N3CCCCC3)CCCCC2)cc1 [PCP, Phencyclidine]
[1]
  Signature in EEG oscillations (peaks in early beta 20-30 Hz, gammaLow 30-40 Hz, gammaHi 80-100 Hz): absent

## Cc1cccc(C(=O)NCN2CCN(c3ccccc3C#N)CC2)c1 [PD 168077]
[2]; CNhetKO mice, versus cyclodextrin control, FIG. 8B
  Time spent exploring novel objects versus familiar objects: significantly more time exploring novel objects compared with familiar objects
[2]; CNhetKO subjects, 5 mg/kg s.c. 30 min prior to familiarization phase and again 30 min prior to test phase after 24 hr
  Performance in the novel object recognition cognitive paradigm: essentially completely restored performance
[3]; CNhetKO mice, up to 90 min post-injection, versus baseline (no D4 agonist)
  Signature of EEG oscillation observed during onset of the exploratory activity (time-frequency maps): restored the signature of EEG oscillation
[3]; CNhetKO subjects, analyzed up to 90 min post-injection, FIG. 6
  Gamma responses (GammaHi 65-90 Hz EEG power) in PFC elicited by object exploration: transiently restored normal Gamma responses

## C[C@H](N)Cc1ccccc1 [D-amphetamine]
[4]
  Hyperkinesis: ameliorated
